Reference: paper PMC2970562, “High-Affinity Inhibitors of Human NAD^+-Dependent 15-Hydroxyprostaglandin Dehydrogenase: Mechanisms of Inhibition and Structure-Activity Relationships” (PLoS ONE, 2010)
Where two headings read alike, the source gives them in different places.

Experiments:
[1] = molecular target: T1, human 15-PGDH (Homo sapiens, UniProt P15428); assay: Compound titrations of re-synthesized inhibitors in the kinetic assay; type: biochemical; details: 10 nM 15-PGDH, 30 µM PGE2, 200 µM NAD+, 25°C, lower percent substrate conversion; read-out: IC50, re-synthesized compounds
T1 construct: comprising residues 3–256 of the human HPGD gene (GenBank identifier: 1203982); His6 (GHHHHHH, behind the TEV site) (C, cleaved yes); made in house; host or cells: E. coli BL21(DE3)-R3
T1 sequence (P15428 3-256): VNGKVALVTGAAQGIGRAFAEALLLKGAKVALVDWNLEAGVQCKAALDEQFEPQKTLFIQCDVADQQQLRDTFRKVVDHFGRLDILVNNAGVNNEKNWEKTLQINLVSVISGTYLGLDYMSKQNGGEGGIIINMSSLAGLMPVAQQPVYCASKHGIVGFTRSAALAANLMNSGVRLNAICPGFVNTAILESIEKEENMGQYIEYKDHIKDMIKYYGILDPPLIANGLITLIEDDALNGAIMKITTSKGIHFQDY
Method: Kinetic studies were performed in 100 mM Tris buffer pH 8.0, containing 0.01% Tween-20 and 10 nM 15-PGDH enzyme. […] All inhibitor compounds were dissolved in 10% (v/v) DMSO at varying concentrations from which they were applied at 1∶5 ratio (resulting in a final concentration of 2% (v/v) DMSO in all assays). For each experiment an aliquot of purified enzyme was thawed freshly and pre-diluted to 10 µM in buffer I (5 mM Tris/HCl, pH 8.0, 150 mM NaCl, 0.01% Tween-20). All experiments were performed in white 384-well PCR microplates (Bio-Rad Laboratories, Inc.) in final assay volumes of 20 µL. Twelve-point compound titrations were set up from serially diluted stock solutions in 10% (v/v) DMSO. […] The initial rates recorded in compound titrations were plotted against -log[compound], and non-linear regression (Levenberg-Marquardt) fitting of the dose-response curve to the Hill equation [47] was performed to derive the IC50, using PRISM 5.0 (GraphPad Software, Inc.). For substrate/cofactor titrations, curves with initial rates plotted against the concentration of substrate or cofactor were fitted to the Michaelis-Menten equation, to derive maximal activities, V max, and Michaelis constants, K m. Fitting qualities were judged from the goodness of fit (R^2>0.98).

[2] = molecular target: T2, ALDH1A1 (Homo sapiens, UniProt P00352); assay: Selectivity screen, aldehyde dehydrogenase 1 (PubChem Assay ID 1030); type: biochemical
T2 sequence (P00352 1-501): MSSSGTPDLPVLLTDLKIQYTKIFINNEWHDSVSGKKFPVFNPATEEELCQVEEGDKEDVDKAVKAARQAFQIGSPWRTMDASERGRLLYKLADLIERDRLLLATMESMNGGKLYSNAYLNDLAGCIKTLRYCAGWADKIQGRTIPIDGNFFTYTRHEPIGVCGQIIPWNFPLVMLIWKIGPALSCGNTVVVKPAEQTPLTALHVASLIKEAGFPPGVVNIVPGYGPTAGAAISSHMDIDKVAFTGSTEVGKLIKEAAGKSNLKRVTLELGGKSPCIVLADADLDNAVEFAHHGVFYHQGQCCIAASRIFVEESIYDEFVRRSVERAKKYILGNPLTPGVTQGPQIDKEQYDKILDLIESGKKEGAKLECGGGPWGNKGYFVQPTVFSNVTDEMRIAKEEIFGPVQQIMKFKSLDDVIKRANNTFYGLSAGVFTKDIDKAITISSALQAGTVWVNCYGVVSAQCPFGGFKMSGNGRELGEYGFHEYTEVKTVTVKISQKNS
Method: (§1) The list also includes two SDR enzymes, hydroxyacyl dehydrogenase (HADH2, also known as type-10 hydroxysteroid dehydrogenase, HSD17β10; PubChem Assay ID 886) and type-4 hydroxysteroid dehydrogenase (HSD17β4; PubChem Assay ID 893), and a medium-chain dehydrogenase/reductase (MDR), aldehyde dehydrogenase 1 (ALDH1A1; PubChem Assay ID 1030), each of which was tested using a similar experimental protocol to that used for 15-PGDH.

[3] = molecular target: T3, HADH2 (HSD17β10) (Homo sapiens, UniProt Q99714); assay: Selectivity screen, hydroxyacyl dehydrogenase (PubChem Assay ID 886)
T3 sequence (Q99714 1-261): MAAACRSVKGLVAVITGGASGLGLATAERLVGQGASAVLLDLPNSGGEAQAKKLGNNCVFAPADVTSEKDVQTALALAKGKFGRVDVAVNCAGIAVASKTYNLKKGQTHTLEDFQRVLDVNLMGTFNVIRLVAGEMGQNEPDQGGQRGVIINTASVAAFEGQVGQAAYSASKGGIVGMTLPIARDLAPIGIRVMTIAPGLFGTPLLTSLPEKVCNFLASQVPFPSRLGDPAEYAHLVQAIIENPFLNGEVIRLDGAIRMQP
Method: as §1

[4] = molecular target: T4, HSD17β4 (Homo sapiens, UniProt P51659); assay: Selectivity screen, type-4 hydroxysteroid dehydrogenase (PubChem Assay ID 893)
T4 sequence (P51659 1-736): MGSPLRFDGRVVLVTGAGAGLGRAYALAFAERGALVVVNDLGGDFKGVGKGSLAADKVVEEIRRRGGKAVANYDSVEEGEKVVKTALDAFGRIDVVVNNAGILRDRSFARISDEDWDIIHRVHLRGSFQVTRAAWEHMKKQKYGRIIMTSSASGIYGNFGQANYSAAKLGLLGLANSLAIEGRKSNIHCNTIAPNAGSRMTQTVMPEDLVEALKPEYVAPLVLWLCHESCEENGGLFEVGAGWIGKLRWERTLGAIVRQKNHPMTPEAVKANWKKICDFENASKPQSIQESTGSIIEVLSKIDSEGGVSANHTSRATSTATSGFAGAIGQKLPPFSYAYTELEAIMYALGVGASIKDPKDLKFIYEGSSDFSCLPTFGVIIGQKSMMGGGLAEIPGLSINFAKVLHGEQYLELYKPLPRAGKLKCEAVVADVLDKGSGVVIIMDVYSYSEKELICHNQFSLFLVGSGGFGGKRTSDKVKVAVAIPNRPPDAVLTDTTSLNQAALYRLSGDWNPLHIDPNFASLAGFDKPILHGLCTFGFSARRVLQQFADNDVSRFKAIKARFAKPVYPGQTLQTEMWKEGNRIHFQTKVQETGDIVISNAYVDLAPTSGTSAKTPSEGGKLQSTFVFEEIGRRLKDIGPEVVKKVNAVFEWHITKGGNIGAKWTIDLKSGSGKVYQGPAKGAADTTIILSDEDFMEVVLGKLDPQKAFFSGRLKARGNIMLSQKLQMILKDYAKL
Method: as §1

[5] = top concentration 57.5 µM, PubChem Assay ID 1030, read-out: IC50/nM ALDH1A1

IC50 [1] | response against ALDH1A1 ([2]; in words) | IC50 [2, 5] | IC50 [3] | IC50 [4] | Emax ([2]; ALDH1A1, footnote of Table 3, read-out: Maximal response, inhibition) | IC50 ([2]; ALDH1A1, shallow curve, read-out: approximate IC50) | SMILES
0.015 ± 0.0012 µM | flat response | > 57500 nM | > 57.5 µM | > 57.5 µM |  |  | Cc1cc(-c2nnc3n2CCCCC3)c(C)n1-c1ccccc1 [Compound 72]
0.0079 ± 0.0008 µM |  | 36000 nM | > 57.5 µM | > 57.5 µM | 70% | ~36000 nM | Cc1cccc(-n2cnc3cc(C(=O)N4CCCCC4)ccc32)c1 [Compound 13, [1-(3-methylphenyl)-1H-benzimidazol-5-yl)(piperidin-1-yl)methanone]
